# Legend:
# Type in all cases: in vivo
# [1] = test system: barnyardgrass (Echinochloa crus-galli); assay: Test A pre-/postemergence plant response
# How it was run: (§1)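 Approximately ten days after concurrent pre- and postemergence spraying in a greenhouse, plants were compared with untreated controls and rated visually for injury, 0 = no effect to 100 = complete control. Preemergence spray was directed onto loam/sand soil; postemergence targeted 1–2 leaf seedlings.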
# corn (Zea mays) = assay: Test A pre-/postemergence plant response
# How it was run: as §1
# [2] = test system: giant foxtail (Setaria faberii); assay: Test A pre-/postemergence plant response
# How it was run: as §1
# [3] = test system: large crabgrass (Digitaria sanguinalis); assay: Test A pre-/postemergence plant response
# How it was run: as §1
# [4] = test system: morningglory (Ipomoea spp.); assay: Test A pre-/postemergence plant response
# How it was run: as §1
# [5] = test system: pigweed (Amaranthus retroflexus); assay: Test A pre-/postemergence plant response
# How it was run: as §1
# [6] = test system: velvetleaf (Abutilon theophrasti); assay: Test A pre-/postemergence plant response
# How it was run: as §1
# [7] = test system: wheat (Triticum aestivum); assay: Test A pre-/postemergence plant response
# How it was run: as §1
# [8] = test system: bermudagrass (Cynodon dactylon); assay: Test B pre-/postemergence plant response; conditions: for Plant response rating, Bermudagrass: Postemergence
# How it was run: (§2)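 Greenhouse herbicide screen. Pre- and postemergence (1- to 4-leaf) spray of compound in solvent/surfactant mixture; loam–sand soil for pre, peat/vermiculite medium for post. Visual control rating 0–100 at 13 to 15 days after treatment.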
# [9] = test system: cocklebur (Xanthium strumarium); assay: Test B pre-/postemergence plant response; conditions: for Plant response rating, Cocklebur: Postemergence
# How it was run: as §2
# [10] = test system: wheat (Triticum aestivum); assay: Test B pre-/postemergence plant response; conditions: for Plant response rating, Wheat: Postemergence
# How it was run: as §2
# [11] = Postemergence, 125 g ai/ha, 0 to 100 scale where 0 is no effect and 100 is complete control
# [12] = Postemergence, 500 g ai/ha, 0 to 100 scale, 0 = no effect, 100 = complete control, approx. ten days
# [13] = Preemergence, 125 g ai/ha, 0 to 100 scale, 0 = no effect, 100 = complete control
# [14] = Preemergence, 500 g ai/ha, visual injury, 0 to 100 scale (0 no effect, 100 complete control), approx. ten days
# [15] = 62 g ai/ha, postemergence, 0 is no effect, 100 is complete control, 13 to 15 days
# [16] = 31 g ai/ha, 0 to 100 scale (0 no effect, 100 complete control)
# [17] = 125 g ai/ha, scale 0 to 100 (0 no effect, 100 complete control)
# [18] = 250 g ai/ha, scale 0 to 100 (0 no effect, 100 complete control)
smiles,measurement,setting,value
COCCCn1c(-c2cccc(F)c2)ncc(C(=O)C2=C(O)CCCC2=O)c1=O [Compound 126],"Plant response rating, Barnyardgrass",[1]; [11],80
same,"Plant response rating, Barnyardgrass",[1]; [12],90
same,"Plant response rating, Barnyardgrass",[1]; [13],70
same,"Plant response rating, Barnyardgrass",[1]; [14],100
same,"Plant response rating, Corn",corn (Zea mays); [11],10
same,"Plant response rating, Corn",corn (Zea mays); [12],60
same,"Plant response rating, Corn",corn (Zea mays); [13],0
same,"Plant response rating, Corn",corn (Zea mays); [14],20
same,"Plant response rating, Foxtail, Giant",[2]; [11],70
same,"Plant response rating, Foxtail, Giant",[2]; [12],80
same,"Plant response rating, Foxtail, Giant",[2]; [13],60
same,"Plant response rating, Foxtail, Giant",[2]; [14],90
same,"Plant response rating, Crabgrass, Large",[3]; [11],90
same,"Plant response rating, Crabgrass, Large",[3]; [12],90
same,"Plant response rating, Crabgrass, Large",[3]; [13],90
same,"Plant response rating, Crabgrass, Large",[3]; [14],100
same,"Plant response rating, Morningglory",[4]; [11],100
same,"Plant response rating, Morningglory",[4]; [12],100
same,"Plant response rating, Morningglory",[4]; [13],70
same,"Plant response rating, Morningglory",[4]; [14],90
same,"Plant response rating, Pigweed",[5]; [11],90
same,"Plant response rating, Pigweed",[5]; [12],100
same,"Plant response rating, Pigweed",[5]; [13],100
same,"Plant response rating, Pigweed",[5]; [14],100
same,"Plant response rating, Velvetleaf",[6]; [11],100
same,"Plant response rating, Velvetleaf",[6]; [12],100
same,"Plant response rating, Velvetleaf",[6]; [13],80
same,"Plant response rating, Velvetleaf",[6]; [14],100
same,"Plant response rating, Wheat",[7]; [11],0
same,"Plant response rating, Wheat",[7]; [12],20
same,"Plant response rating, Wheat",[7]; [13],0
same,"Plant response rating, Wheat",[7]; [14],20
same,Bermudagrass plant response rating (0 to 100 scale),[8]; [15],85
same,"Plant response rating, Bermudagrass",[8]; [16],75
same,"Plant response rating, Bermudagrass",[8]; [17],90
same,"Plant response rating, Bermudagrass",[8]; [18],95
same,Cocklebur plant response rating (0 to 100 scale),[9]; [15],65
same,"Plant response rating, Cocklebur",[9]; [16],15
same,"Plant response rating, Cocklebur",[9]; [17],80
same,"Plant response rating, Cocklebur",[9]; [18],98
same,Wheat plant response rating (0 to 100 scale),[10]; [15],15
same,"Plant response rating, Wheat",[10]; [16],5
same,"Plant response rating, Wheat",[10]; [17],35

# Source: patent publication US8952024B2, “Herbicidal pyrimidone derivatives” (E I du Pont de Nemours and Company, priority 2009, dated 2015)
